# Data from article PMC10586511 (Molecular Pharmacology, 2023).
# Molecular target: T1, 5-HT1AR (serotonin 1A receptor) (Homo sapiens, UniProt P08908)
# T1 sequence (P08908 1-422): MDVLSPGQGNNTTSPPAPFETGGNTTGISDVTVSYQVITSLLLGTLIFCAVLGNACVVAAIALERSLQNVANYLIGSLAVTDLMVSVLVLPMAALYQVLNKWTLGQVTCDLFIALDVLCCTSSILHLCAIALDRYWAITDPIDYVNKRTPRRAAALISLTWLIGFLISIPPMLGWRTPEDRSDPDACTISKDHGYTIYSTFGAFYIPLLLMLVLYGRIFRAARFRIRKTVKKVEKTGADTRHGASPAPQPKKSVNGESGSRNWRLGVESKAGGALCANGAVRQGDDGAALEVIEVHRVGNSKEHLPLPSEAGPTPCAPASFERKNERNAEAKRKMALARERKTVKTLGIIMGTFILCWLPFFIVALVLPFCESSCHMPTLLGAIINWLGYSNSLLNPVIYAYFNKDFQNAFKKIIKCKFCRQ
# Assay: G protein nanoBRET
# Assay type: cell-based
row,EC50,SMILES
1,0.537 µM,Cc1cnc(CNCC2(F)CCN(C(=O)c3ccc(F)c(Cl)c3)CC2)nc1 [F-15599]
2,0.17 µM,O=c1[nH]c2ccccc2n1CCN1CCN(c2cccc(C(F)(F)F)c2)CC1 [Flibanserin]

row,SMILES,EC50
1,COc1cc2c3c(c1OC)-c1ccccc1C[C@H]3N(C)CC2 [Nuciferine],16.6 µM
